Assay: xn = mol fraction of the nth substance listed
Conditions: 101.33 kPa

COCCOCCOC + CCCCCCCCCCCC
viscosity [mPa·s]
Conditions	x1 = 0.1009	x1 = 0.1998	x1 = 0.2993	x1 = 0.4034	x1 = 0.5021	x1 = 0.6015	x1 = 0.7024	x1 = 0.8008	x1 = 0.9003
298.15 K	1.236	1.157	1.11	1.074	1.043	1.02	1.001	0.981	0.98
308.15 K	1.038	0.976	0.94	0.909	0.884	0.865	0.849	0.837	0.835
318.15 K	0.88	0.83	0.801	0.78	0.757	0.743	0.728	0.72	0.719

COCCOCCOC + CCCCCCCCC
viscosity [mPa·s]
Conditions	x1 = 0.0991	x1 = 0.2003	x1 = 0.3005	x1 = 0.3982	x1 = 0.5023	x1 = 0.5963	x1 = 0.6999	x1 = 0.7997	x1 = 0.897
298.15 K	0.642	0.64	0.665	0.691	0.712	0.747	0.794	0.836	0.898
308.15 K	0.559	0.56	0.579	0.6	0.618	0.647	0.685	0.718	0.768
318.15 K	0.49	0.49	0.507	0.523	0.538	0.561	0.591	0.62	0.662

CCCCCCN + CCN(CC)CC
viscosity [mPa·s]
Conditions	x2 = 0.1014	x2 = 0.1952	x2 = 0.3807	x2 = 0.4897	x2 = 0.5912	x2 = 0.7898	x2 = 0.8946
303.15 K	0.6552	0.6088	0.5322	0.4934	0.4613	0.407	0.3827
313.15 K	0.5654	0.5278	0.4639	0.4323	0.4027	0.3627	0.3436

COCCOCCOC + CCCCOC(C)=O
viscosity [mPa·s]
Conditions	x1 = 0.0863	x1 = 0.1754	x1 = 0.2733	x1 = 0.3672	x1 = 0.4639	x1 = 0.5609	x1 = 0.6688	x1 = 0.8022	x1 = 0.8835
298.15 K	0.706	0.734	0.764	0.791	0.822	0.852	0.884	0.924	0.948
303.15 K	0.659	0.684	0.712	0.736	0.764	0.791	0.82	0.856	0.878
308.15 K	0.616	0.639	0.664	0.686	0.714	0.737	0.768	0.796	0.816
313.15 K	0.578	0.599	0.622	0.641	0.665	0.69	0.712	0.742	0.759
318.15 K	0.542	0.562	0.583	0.601	0.622	0.642	0.665	0.692	0.709
